12 compounds from ChEMBL document CHEMBL1201862, “PubChem BioAssay data set” (2004) can be followed below.

Among the test systems are ACHN; EKVX; HCT-116; HCT-15; IGROV-1; K562; M14; NCI-H226; NCI-H460; NCI/ADR-RES; OVCAR-3; RPMI-8226; SK-MEL-28; SK-MEL-2; SK-OV-3; SNB-19; UACC-257; UACC-62; BT-549; OVCAR-8.
What all share (assay): DTP human tumour cell line panel, 48 h

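Each compound was tested at five concentrations against cells in 96-well plates for 48 hours. Here, GI50 denotes the concentration required for 50% inhibition of growth.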 Activity calls are given as the source filed them. No stated cut-off is given here; in the data, active = GI50 up to about 1.1 µM and inactive = higher.

With `NC(=O)c1cc(N(CCO)CCO)c([N+](=O)[O-])cc1[N+](=O)[O-]`, the GI50 (in general, the concentration that inhibits growth by half) with ACHN is > 100 µM (inactive); with EKVX, > 100 µM (inactive); with HCT-116, > 100 µM (inactive); with HCT-15, > 100 µM; in the experiment with IGROV-1, > 100 µM (inactive); in the experiment with K562 it was > 100 µM (inactive). For the same compound, the GI50 in the experiment on M14, in the experiment on NCI-H226, in the experiment with NCI-H460, in the experiment on NCI/ADR-RES, with OVCAR-3 and in the experiment on RPMI-8226 was > 100 µM (inactive) throughout. Further, the GI50 in the experiment on SK-MEL-28, in the experiment with SK-MEL-2, with SK-OV-3, with SNB-19, in the experiment with UACC-257 and with UACC-62 was > 100 µM (inactive) in each case.
`c1ccc2c(c1)[nH]c1nc3cc(-c4ccc5nc6c(nc5c4)[nH]c4ccccc46)ccc3nc12`: the GI50 was > 52.8 µM (inactive) in the experiment with ACHN; > 100 µM (inactive) in the experiment on BT-549; > 90.4 µM (inactive) in the experiment on EKVX; > 69.7 µM (inactive) with HCT-116; > 100 µM (inactive) in the experiment with IGROV-1; > 100 µM (inactive) with M14. Also, the GI50 was > 100 µM (inactive) with NCI-H226; > 33.5 µM (inactive) in the experiment on NCI-H460; > 100 µM (inactive) with OVCAR-8; 38 µM (inactive) with RPMI-8226; > 100 µM (inactive) in the experiment on SK-MEL-28; > 100 µM (inactive) with SK-MEL-2. Moreover, the GI50 is > 100 µM (inactive) in the experiment with SK-OV-3, > 100 µM (inactive) with SNB-19, > 100 µM (inactive) with UACC-257 and > 72.9 µM (inactive) in the experiment on UACC-62.
For `O=C1CN(c2ccc(Cl)cc2)C(=O)CN1NCNN1CC(=O)N(c2ccc(Cl)cc2)CC1=O`, the GI50 was > 100 µM (inactive) in the experiment with ACHN; > 100 µM (inactive) in the experiment with BT-549; > 100 µM (inactive) with EKVX; > 100 µM (inactive) in the experiment on HCT-116; > 100 µM with HCT-15; > 100 µM (inactive) with IGROV-1. Also, the GI50 in the experiment with M14, with NCI-H460, in the experiment on OVCAR-3, in the experiment on OVCAR-8, with RPMI-8226 and in the experiment on SK-MEL-28 was > 100 µM (inactive) throughout. Besides, the GI50 in the experiment on SK-OV-3, with SNB-19, with UACC-257 and with UACC-62 was > 100 µM (inactive) throughout.
`Cc1csc2[n+]1C(=O)/C(=C\c1ccc([N+](=O)[O-])cc1)S2`: the GI50 with ACHN was 25.4 µM (inactive); with HCT-116 it was 17.8 µM (inactive); in the experiment on K562, 26.8 µM (inactive); in the experiment with M14 it was 34 µM (inactive); with NCI-H226, 4.1 µM (inactive); with NCI-H460 it was 22.9 µM (inactive). Besides, the GI50 in the experiment on NCI/ADR-RES was 25.4 µM (inactive); in the experiment with OVCAR-3 it was 15.3 µM (inactive); in the experiment on OVCAR-8 it was 22.4 µM (inactive); with RPMI-8226 it was 16.6 µM (inactive); with SK-MEL-28 it was 36.9 µM (inactive); in the experiment with SK-MEL-2, 25.6 µM (inactive). Further, the GI50 in the experiment with SK-OV-3 was 31.5 µM (inactive); in the experiment with SNB-19, 25.4 µM (inactive); with UACC-257 it was 29.9 µM (inactive); in the experiment on UACC-62 it was 19.2 µM (inactive).
Take `O=C1/C(=C/c2ccccc2)N=C(c2ccccc2)N1C1Nc2cc3c(cc2S1)NC(N1C(=O)/C(=C/c2ccccc2)N=C1c1ccccc1)S3` (stereo unspecified): the GI50 in the experiment with ACHN was 29.5 µM (inactive); in the experiment with EKVX it was 95.7 µM (inactive); in the experiment with HCT-116, 32.5 µM (inactive); with HCT-15 it was 24.2 µM; in the experiment on IGROV-1 it was 6.98 µM (inactive); in the experiment with K562, 10 µM (inactive). The GI50 is 9.51 µM (inactive) in the experiment with M14; 44.5 µM (inactive) with NCI-H226; 17.9 µM (inactive) in the experiment on NCI-H460; 44.6 µM (inactive) in the experiment on NCI/ADR-RES; 37.1 µM (inactive) in the experiment on OVCAR-3; 4.33 µM (inactive) with OVCAR-8. For the same compound, the GI50 in the experiment with RPMI-8226 was 5.4 µM (inactive); with SK-MEL-28, 6.64 µM (inactive); in the experiment with SK-MEL-2, 23.6 µM (inactive); with SK-OV-3 it was > 100 µM (inactive); in the experiment with UACC-257, 3.78 µM (inactive).
Turning to `CC1CC(=O)NC2CC1C2(C)C` (stereo unspecified), the GI50 in the experiment on ACHN is > 100 µM (inactive); with BT-549, > 100 µM (inactive); in the experiment on HCT-15 it was > 100 µM; in the experiment with IGROV-1 it was > 100 µM (inactive); in the experiment with K562, > 100 µM (inactive); in the experiment with M14 it was > 100 µM (inactive). Moreover, the GI50 with NCI-H226, in the experiment on NCI-H460, in the experiment on OVCAR-3, in the experiment with OVCAR-8, in the experiment on RPMI-8226 and with SK-MEL-28 was > 100 µM (inactive) throughout. Besides, the GI50 with SK-MEL-2, with SNB-19, with UACC-257 and with UACC-62 was > 100 µM (inactive) throughout.
`COC(C)(C)C1=CCC(C)CC1` (stereo unspecified): the GI50 with ACHN is > 100 µM (inactive); in the experiment on BT-549, > 100 µM (inactive); in the experiment on EKVX, > 100 µM (inactive); in the experiment on HCT-116, > 100 µM (inactive); in the experiment on HCT-15, > 100 µM; with IGROV-1, > 100 µM (inactive). The GI50 with M14, in the experiment with NCI-H460, in the experiment with OVCAR-3, in the experiment with OVCAR-8, with RPMI-8226 and with SK-MEL-28 was > 100 µM (inactive) each time. The GI50 with SK-OV-3, with SNB-19, with UACC-257 and with UACC-62 was > 100 µM (inactive) in each case.
With `O=C1N[C@@H](COc2ccc(/C=N/c3ccc(CCc4ccc(/N=C/c5ccc(OC[C@@H]6COC(=O)N6)cc5)cc4)cc3)cc2)CO1`, the GI50 was > 100 µM (inactive) in the experiment on ACHN; > 100 µM (inactive) with EKVX; > 100 µM (inactive) in the experiment with HCT-116; > 100 µM in the experiment on HCT-15; > 100 µM (inactive) with IGROV-1; > 100 µM (inactive) in the experiment with K562. The GI50 in the experiment with M14, with NCI-H226, with NCI/ADR-RES, in the experiment with OVCAR-3, with OVCAR-8 and with RPMI-8226 was > 100 µM (inactive) in each case. Further, the GI50 in the experiment with SK-MEL-28, in the experiment on SK-MEL-2, in the experiment on SK-OV-3, in the experiment on SNB-19, with UACC-257 and in the experiment on UACC-62 was > 100 µM (inactive) each time.
`O=c1[nH]nc(-c2ccccc2)n1Nc1ccccc1`: the GI50 in the experiment with ACHN is > 100 µM (inactive); in the experiment with EKVX it was > 100 µM (inactive); in the experiment with HCT-116 it was > 100 µM (inactive); in the experiment on HCT-15, > 100 µM; in the experiment with IGROV-1 it was > 100 µM (inactive); in the experiment with K562, > 100 µM (inactive). Besides, the GI50 in the experiment on M14, in the experiment with NCI-H226, in the experiment with NCI-H460, in the experiment with NCI/ADR-RES, in the experiment on OVCAR-3 and in the experiment on OVCAR-8 was > 100 µM (inactive) each time. Further, the GI50 in the experiment on RPMI-8226, in the experiment with SK-MEL-28, with SK-MEL-2, in the experiment with SK-OV-3, in the experiment on SNB-19 and in the experiment on UACC-257 was > 100 µM (inactive) throughout. Moreover, in the experiment on UACC-62, the GI50 was > 100 µM (inactive).
In the case of `COC(=O)c1cncc2c1CC1C3(C(=O)OC)C=NC(C4C(CO)=CCC43)C21C` (stereo unspecified), the GI50 was > 100 µM (inactive) in the experiment with ACHN; > 100 µM (inactive) in the experiment with EKVX; > 100 µM (inactive) in the experiment with HCT-116; > 100 µM with HCT-15; > 100 µM (inactive) in the experiment on IGROV-1; > 100 µM (inactive) with M14. For the same compound, the GI50 with NCI-H226, with NCI-H460, with NCI/ADR-RES, in the experiment with OVCAR-8, with SK-MEL-28 and with SK-MEL-2 was > 100 µM (inactive) in each case. Besides, the GI50 in the experiment on SNB-19 and with UACC-257 was > 100 µM (inactive) throughout.
Regarding `CC(C)N(C(=O)C12CC3CC(CC(C3)C1)C2)C(C)C`, the GI50 in the experiment on ACHN was > 50 µM (inactive); in the experiment on EKVX it was > 50 µM (inactive); in the experiment with HCT-116 it was > 50 µM (inactive); in the experiment on HCT-15 it was > 50 µM; in the experiment on IGROV-1, > 50 µM (inactive); in the experiment with K562 it was > 50 µM (inactive). Further, the GI50 in the experiment with M14, with NCI-H226, in the experiment with NCI-H460, with OVCAR-3, in the experiment on OVCAR-8 and in the experiment on RPMI-8226 was > 50 µM (inactive) each time. Besides, the GI50 in the experiment on SK-MEL-28, with SK-MEL-2, in the experiment with SK-OV-3, in the experiment on SNB-19, in the experiment on UACC-257 and in the experiment on UACC-62 was > 50 µM (inactive) throughout.
On to `Cc1ccc(/C(=C/C=C(C#N)C#N)Sc2cc(Cl)ccc2Cl)cc1`, for which the GI50 with ACHN was 2.7 µM (inactive); in the experiment on EKVX it was 14 µM (inactive); in the experiment with HCT-116 it was 0.83 µM (active); with HCT-15, 3.06 µM; in the experiment with IGROV-1, 8.41 µM (inactive); in the experiment on M14, 4.48 µM (inactive). Also, the GI50 in the experiment on NCI-H226 was 3.02 µM (inactive); in the experiment on NCI-H460, 4.31 µM (inactive); in the experiment with NCI/ADR-RES it was 2.42 µM (inactive); in the experiment with OVCAR-3, 3.06 µM (inactive); in the experiment with OVCAR-8 it was 2.37 µM (inactive); in the experiment with SK-MEL-28 it was 8.57 µM (inactive). Moreover, the GI50 was 8.75 µM (inactive) with SK-MEL-2; 8 µM (inactive) in the experiment with SK-OV-3; 5.97 µM (inactive) in the experiment with SNB-19; 2.78 µM (inactive) with UACC-257; 3.85 µM (inactive) in the experiment on UACC-62.
